According to patent US11098056B2, “UDP glycosyltransferase inhibitors and methods of use” (GENZYME CORPORATION, priority 2018, dated 2021):

molecular target: T1, UGT8 (Homo sapiens, UniProt Q16880); assay: In vitro sulfatide (SFT) synthesis inhibition in OE19 cells, LC-MS/MS readout; type: cell-based; settings: 72 hr, sulfatide by LC-MS/MS, read-out: Potency range (IC50, In-vitro SFT)
T1 construct: host or cells: OE19 cells
T1 sequence (Q16880 21-541): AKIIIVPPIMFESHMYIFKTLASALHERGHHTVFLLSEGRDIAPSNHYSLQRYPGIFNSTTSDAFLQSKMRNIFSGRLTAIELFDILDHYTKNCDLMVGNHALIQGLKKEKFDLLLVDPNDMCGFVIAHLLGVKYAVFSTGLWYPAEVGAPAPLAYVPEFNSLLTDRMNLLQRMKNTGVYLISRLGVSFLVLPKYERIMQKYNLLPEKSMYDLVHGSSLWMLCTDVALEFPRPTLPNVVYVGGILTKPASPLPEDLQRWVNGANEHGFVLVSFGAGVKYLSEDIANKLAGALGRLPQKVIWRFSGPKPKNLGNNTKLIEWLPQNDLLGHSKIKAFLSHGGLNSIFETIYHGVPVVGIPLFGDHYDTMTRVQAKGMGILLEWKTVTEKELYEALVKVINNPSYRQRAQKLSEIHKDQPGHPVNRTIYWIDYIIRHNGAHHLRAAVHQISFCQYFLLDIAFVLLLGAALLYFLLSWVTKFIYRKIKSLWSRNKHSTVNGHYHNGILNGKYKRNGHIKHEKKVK
Description: For medium throughput screening, library compounds were dispensed into CellBIND 384 well plates to a final concentration of 10 μM. OE19 cells (Sigma) were grown in to 70-90% confluency in RPMI 1640+L-glutamine and […]; were trypsinized to achieve suspension and were aliquoted at 2,500 cells/well, total well volume 50 μl. Plates were incubated 72 hr at 37° C. in 5% CO2; supernatant was removed and plates were dried, heat-sealed and stored at −20° C. until analysis.
For IC50 determinations, the same procedure was followed except that test compounds were added to the plate as dose-downs in triplicate to yield concentration response curves.
Mass Spectrometer Analysis of Sulfatide (SFT):
Assay plates were thawed and 85 μl mobile phase B (5 mM ammonium formate^+0.2% formic acid in 50:50 methanol:acetonitrile). Fifteen μl 20 ng/ml C17 SFT in mobile phase B was added as an internal standard.
SFT was analyzed using an Applied Biosystems API-4000 triple quad mass spectrometer interfaced to a Thermo Scientific Multiplex system (LX-4) equipped with four pumps. Chromatography of OE19 cell samples or 2B5-mouse cells treated with compounds was performed using a Waters Acquity UPLC BEH C8 2.1×50 mm column with 1.7 um particle size. The chromatography was performed using the following mobile phases. Mobile phase A (MPA): 0.2% formic acid and 5 mM ammonium formate in deionized water; MPB: see above. The LC method was run in isocratic mode for 4 sequentially running columns using 95% MPB and 5% MPA with flow rate of 1 ml/min and a column temperature of 60° C.
The Triple quad mass spectrometer was run in Negative Ionization mode monitoring the following MRM transitions and using the following parameters:
Electrospray voltage was […], and source temperature was 550° C.

`CNC(=O)c1csc2c(C(F)(F)F)cc(N3CCN(CC(C)OCC4CC4)CC3)nc12` (racemic) [Example 39, (+/−)-5-(4-(2-(Cyclopropylmethoxy)propyl)piperazin-1-yl)-N-methyl-7-(trifluoromethyl)thieno[3,2-b]pyridine-3-carboxamide] was tested. Which IC50 did it give?
The IC50 was 100 to 1000 nM.

Which IC50 does the source give for `CNC(=O)c1csc2c(C(F)(F)F)cc(O[C@@H]3CCN(C(=O)OC(C)(C)C)[C@@H](C)C3)nc12` (racemic) [Example 368, (+/−)-tert-Butyl trans-2-methyl-4-((3-(methylcarbamoyl)-7-(trifluoromethyl)thieno[3,2-b]pyridin-5-yl)oxy)piperidine-1-carboxylate] here?
Its IC50 is 100 to 1000 nM.

`CNC(=O)c1csc2c(C(F)(F)F)cc(O[C@@H]3CCN(C(=O)OCCOC(F)(F)F)[C@@H](C)C3)nc12` (racemic) [Example 369, (+/−)-trans-2-(Trifluoromethoxy)ethyl-2-methyl-4-((3-(methylcarbamoyl)-7-(trifluoromethyl)thieno[3,2-b]pyridin-5-yl)oxy)piperidine-1-carboxylate] was tested. Which IC50 did it give?
Its IC50 is < 100 nM.

Which IC50 does the source give for `CNC(=O)c1csc2c(C(F)(F)F)cc(O[C@@H]3CCN(C(=O)OC(C)(C)C)[C@H](C)C3)nc12` (racemic) [Example 370, (+/−)-tert-Butyl cis-2-methyl-4-((3-(methylcarbamoyl)-7-(trifluoromethyl)thieno[3,2-b]pyridin-5-yl)oxy)piperidine-1-carboxylate] here?
Its IC50 is < 100 nM.

`CNC(=O)c1csc2c(C(F)(F)F)cc(O[C@@H]3CCN(C(=O)OCCOC(F)(F)F)[C@H](C)C3)nc12` (racemic) [Example 371, (+/−)-cis-2-(Trifluoromethoxy)ethyl-2-methyl-4-((3-(methylcarbamoyl)-7-(trifluoromethyl)thieno[3,2-b]pyridin-5-yl)oxy)piperidine-1-carboxylate] was tested. Which IC50 did it give?
The IC50 was < 100 nM.

How did the IC50 turn out when `CNC(=O)c1csc2c(C(F)(F)F)c(C)c(O[C@@H]3CCN(C(=O)OC(C)(C)C)C[C@@H]3F)nc12` (racemic) [Example 387, (+/−)-tert-Butyl cis-3-fluoro-4-((6-methyl-3-(methylcarbamoyl)-7-(trifluoromethyl)thieno[3,2-b]pyridin-5-yl)oxy)piperidine-1-carboxylate] was run?
The IC50 was < 100 nM.

Which IC50 does the source give for `CNC(=O)c1csc2c(C(F)(F)F)cc(N3CC[C@H](OC(=O)N[C@@H](C)COC(F)(F)F)[C@@H](F)C3)nc12` (racemic) [Example 418] here?
Its IC50 is < 100 nM.

For `CC(C)NC(=O)O[C@H]1CCN(c2cc(C(F)(F)F)c3scc(C(=O)N4CCC4)c3n2)C[C@@H]1F` (racemic) [Example 441, (+/−)-trans-1-(3-(Azetidine-1-carbonyl)-7-(trifluoromethyl)thieno[3,2-b]pyridin-5-yl)-3-fluoropiperidin-4-yl isopropylcarbamate], which IC50 is on record?
Its IC50 is < 100 nM.

`CNC(=O)c1csc2c(C(F)(F)F)cc(N3CC[C@H](OC(=O)N(C(C)C)C(C)C)[C@@H](F)C3)nc12` (racemic) [Example 488, (+/−)-trans-3-Fluoro-1-(3-(methylcarbamoyl)-7-(trifluoromethyl)thieno[3,2-b]pyridin-5-yl)piperidin-4-yl diisopropylcarbamate] was tested. Which IC50 did it give?
Its IC50 is < 100 nM.

With `CNC(=O)c1csc2c(C(F)(F)F)cc(N3CC[C@H](OC(=O)NC(C)C)[C@@H](F)C3)nc12` (racemic) [Example 490, (+/−)-tran-3-Fluoro-1-(3-(methylcarbamoyl)-7-(trifluoromethyl)thieno[3,2-b]pyridin-5-yl)piperidin-4-yl isopropylcarbamate] as the molecule, how does the IC50 read?
The IC50 was < 100 nM.

`CNC(=O)c1csc2c(C(F)(F)F)cc(N3CC[C@H](OC(=O)NC4CC4)[C@@H](F)C3)nc12` (racemic) [Example 492, (+/−)-trans-3-Fluoro-1-(3-(methylcarbamoyl)-7-(trifluoromethyl)thieno[3,2-b]pyridin-5-yl)piperidin-4-yl cyclopropylcarbamate] was tested. Which IC50 did it give?
Its IC50 is < 100 nM.

How did the IC50 turn out when `CNC(=O)c1csc2c(C(F)(F)F)cc(O[C@@H]3CN(C(=O)OC(C)(C)C)C[C@@H]3F)nc12` (racemic) [Example 609, tert-Butyl (+/−)-cis-3-fluoro-4-((3-(methylcarbamoyl)-7-(trifluoromethyl)thieno[3,2-b]pyridin-5-yl)oxy)pyrrolidine-1-carboxylate] was run?
Its IC50 is < 100 nM.

How did the IC50 turn out when `CNC(=O)c1csc2c(C(F)(F)F)cc(O[C@H]3CN(C(=O)OCC4CC4)C[C@H]3F)nc12` (racemic) [Example 610, Cyclopropylmethyl (+/−)-cis-3-fluoro-4-((3-(methylcarbamoyl)-7-(trifluoromethyl)thieno[3,2-b]pyridin-5-yl)oxy)pyrrolidine-1-carboxylate] was run?
The IC50 was < 100 nM.

Which IC50 does the source give for `CNC(=O)c1csc2c(C(F)(F)F)cc(O[C@H]3CN(C(=O)OCCOC(F)(F)F)C[C@H]3F)nc12` (racemic) [Example 611, 2-(Trifluoromethoxy)ethyl (+/−)-cis-3-fluoro-4-((3-(methylcarbamoyl)-7-(trifluoromethyl)thieno[3,2-b]pyridin-5-yl)oxy)pyrrolidine-1-carboxylate] here?
Its IC50 is < 100 nM.

Which IC50 does the source give for `CNC(=O)c1csc2c(C(F)(F)F)cc(OC3CC4COCC(C3)N4C(=O)OC(C)(C)C)nc12` (racemic) [Example 628, tert-Butyl (+/−)-endo7-((3-(methylcarbamoyl)-7-(trifluoromethyl)thieno[3,2-b]pyridin-5-yl)oxy)-3-oxa-9-azabicyclo[3.3.1]nonane-9-carboxylate] here?
The IC50 was 100 to 1000 nM.

With `CNC(=O)c1csc2c(C(F)(F)F)cc(OC3CC4COCC(C3)N4C(=O)OCCOC(F)(F)F)nc12` (racemic) [Example 629, 2-(Trifluoromethoxy)ethyl (+/−)-endo7-((3-(methylcarbamoyl)-7-(trifluoromethyl)thieno[3,2-b]pyridin-5-yl)oxy)-3-oxa-9-azabicyclo[3.3.]nonane-9-carboxylate] as the molecule, how does the IC50 read?
The IC50 was < 100 nM.

With `CNC(=O)c1csc2c(C(F)(F)F)cc(N3CCC(OC(=O)NC(C)CF)CC3)nc12` (racemic) [Example 671, [1-[3-(Methylcarbamoyl)-7-(trifluoromethyl)thieno[3,2-b]pyridin-5-yl]-4-piperidyl] N-(2-fluoro-1-methyl-ethyl)carbamate] as the molecule, how does the IC50 read?
Its IC50 is < 100 nM.

With `CNC(=O)c1csc2c(C(F)(F)F)cc(O[C@H]3C[C@@H](OC(=O)N[C@@H](C)COC(F)(F)F)C3)nc12` (racemic) [Example 833, (+/−)-cis-(1S,3R)-3-((3-(Methylcarbamoyl)-7-(trifluoromethyl)thieno[3,2-b]pyridin-5-yl)oxy)cyclobutyl ((S)-1-(trifluoromethoxy)propan-2-yl)carbamate] as the molecule, how does the IC50 read?
Its IC50 is < 100 nM.

How did the IC50 turn out when `COC(=O)c1csc2c(C(F)(F)F)cc(N3CCN(CC(=O)NC(C)C)CC3)nc12` [Example 10, Methyl 5-(4-(2-(isopropylamino)-2-oxoethyl)piperazin-1-yl)-7-(trifluoromethyl)thieno[3,2-b]pyridine-3-carboxylate] was run?
The IC50 was < 100 nM.

`CCNC(=O)CN1CCN(c2cc(C(F)(F)F)c3scc(C(=O)NC)c3n2)CC1` [Example 25, 5-(4-(2-(Ethylamino)-2-oxoethyl)piperazin-1-yl)-N-methyl-7-(trifluoromethyl)thieno[3,2-b]pyridine-3-carboxamide] was tested. Which IC50 did it give?
Its IC50 is 100 to 1000 nM.

Which IC50 does the source give for `CNC(=O)c1csc2c(C(F)(F)F)cc(N3CCN(C(=O)COC(C)C)CC3)nc12` [Example 44, 5-(4-(2-Isopropoxyacetyl)piperazin-1-yl)-N-methyl-7-(trifluoromethyl)thieno[3,2-b]pyridine-3-carboxamide] here?
Its IC50 is 100 to 1000 nM.

With `CNC(=O)c1csc2c(C(F)(F)F)c(C)c(N3CCN(CC(=O)NC(C)C)CC3)nc12` [Example 47, 5-(4-(2-(Isopropylamino)-2-oxoethyl)piperazin-1-yl)-N,6-dimethyl-7-(trifluoromethyl)thieno[3,2-b]pyridine-3-carboxamide] as the molecule, how does the IC50 read?
The IC50 was 100 to 1000 nM.

`CNC(=O)c1csc2c(C)cc(N3CCN(CC(=O)NC(C)C)CC3)nc12` [Example 48, 5-(4-(2-(Isopropylamino)-2-oxoethyl)piperazin-1-yl)-N,7-dimethylthieno[3,2-b]pyridine-3-carboxamide] was tested. Which IC50 did it give?
Its IC50 is 100 to 1000 nM.

How did the IC50 turn out when `CNC(=O)c1csc2c(C(F)(F)F)cc(N3CCN(CC(=O)NC(C)C)C(C)(C)C3)nc12` [Example 49, 5-(4-(2-(Isopropylamino)-2-oxoethyl)-3,3-dimethylpiperazin-1-yl)-N-methyl-7-(trifluoromethyl)thieno[3,2-b]pyridine-3-carboxamide] was run?
Its IC50 is < 100 nM.
